Converted amounts (≈) assume the structure as drawn. “And” between values parts separate entries of the source, which are not always exact repeats. Equal values may be shown once. Read-outs that look alike come from different tables or passages of the source.
Experiments:
[1] = tested on: Streptococcus mutans wild-type strain UA159; test: MIC assay, S. mutans; type: cell-based
Source text: (§1) Streptococcus mutans wild-type strain UA159 was provided by Dr. Bettina Buttaro from Temple University Medical School, Philadelphia, Pa. Streptococcus gordonii strain DL1 and Streptococcus sanguinis strain 10904 were provided by Dr. Robert G. Quivey from University of Rochester Medical School. Streptococcus gordonii strain DL1 may be obtained from the American Type Culture Collection under accession #49818. Streptococcus sanguinis strain 10904 may be obtained from the National Collection of Type Cultures under accession #10904. Bacteria were routinely maintained on in Bacto™ Todd-Hewitt (TH) agar plates and liquid cultures were grown in Bacto™ Todd-Hewitt broth (THB). For growth of biofilms, THB was supplemented with 0.1% sucrose. Incubation was stagnant at 37° C. Bacterial strains Methicillin-Resistant Staphylococcus aureus HPV107, Staphylococcus epidermidis Fussel [NCTC 11047, R. Hugh 2466], Streptococcus sobrinus SL1 [CCM 6070, CNCTC 9/89], Enterococcus faecalis NCTC 775 [DSM 20478, JCM 8726, NCDO 581, Tissier], Pseudomonas aeruginosa [CCEB 481, MDB strain BU 277, NCIB 8295, NCPPB 1965, NCTC 10332, NRRL B-771, R. Hugh 815], Serratia marcescens BS 303 [CDC 813-60, NCIB 9155, NCTC 10211], and Acinetobacter baumannii 2208 [81, DSM 6974] were purchased from the American Type Culture Collection.
(§2) Stock solutions of compounds (10 mM) were serial diluted (200 μL, 100 μL, 50 μL, 10 μL, and 2 μL) in THB media in flat-bottom 96-well microtiter plates (total volume 100 μL). Bacterial cultures were grown in brain heart infusion or nutrient broth media to mid-exponential phase, back diluted to an OD of 0.1 and then inoculated into the 96-well plate to reach a final volume of 200 μL. Plates were inoculated at 37° C. in 5% CO2 for 20-24 hours upon which time wells were evaluated visually for bacterial growth and/or the wells' OD630 was evaluated via spectrophotometer. […] DMSO controls corresponding to each test concentration were performed. Biological triplicates were performed to confirm results.

[2] = tested on: red blood cells (mechanically defibrinated sheep blood); test: Hemolysis assay (cell lysis); type: cell-based; set-up: red blood cell lysis: unit not given here; conditions: for red blood cell lysis: 1 hour, 37° C.; for concentration at which the membrane is perturbed: stated under the cell lysis example
Protocol: The effects of the compounds described herein to lyse cells was evaluated in this example. Hemolysis assays were performed on mechanically defibrinated sheep blood (Hemostat Labs: DSB030). 1.5 mL of blood was placed into a microcentrifuge tube and centrifuged at 10,000 rpm for ten minutes. The supernatant was removed and then the cells were resuspended with 1 mL of phosphate-buffered saline (PBS). The suspension was centrifuged as previously, the supernatant was removed, and cells were resuspended two more times. The final cell suspension was diluted twentyfold with PBS. The twentyfold suspension dilution was then aliquoted into microcentrifuge tubes containing compound serially diluted in PBS. TritonX (1% by volume) served as a positive control (100% lysis marker) and sterile PBS served as a negative control (0% lysis marker). Samples were then placed in an incubator at 37° C. and shaken at 200 rpm. After 1 hour, the samples were centrifuged at 10,000 rpm for ten minutes. The absorbance of the supernatant was measured with a UV spectrometer at a 540 nm wavelength. See, e.g., Peng, Chem. Comm. 2011, 47, 4896-4898.

membrane = test: SYTOX green cell permeabilization assay; type: cell-based; conditions: SYTOX green nucleic acid stain, FIGS. 1A-1F
Protocol: This example was performed to measure cell viability (i.e., cell permeabilization) by using a molecule that fluoresces when bound to DNA. The assay performed was a SYTOX™ assay green nucleic acid stain using compounds 1H and 2E. Specifically, when the membrane was perturbed, the molecule entered the cell, bound to DNA and fluoresced. The positive and negative controls were a quaternary ammonium compound (QAC; 12,3,2,3,12) and vancomycin, respectively. See the results shown in, e.g., FIGS. 1A-1F.

[3] = tested on: Streptococcus sanguinis strain 10904; test: MIC assay, S. sanguinis; type: cell-based; conditions: 5% CO2, 37° C., 20-24 hours
Source text: as §1, §2

[4] = tested on: Streptococcus gordonii strain DL1; test: MIC assay, S. gordonii; type: cell-based; conditions: 5% CO2, 37° C., 20-24 hours
Source text: as §1, §2

S. mutans = S. mutans MBC assay; type: cell-based, Streptococcus mutans; conditions: for MBC: Streptococcus mutans, 3-log reduction in CFU count (99.9% bacterial death); for bacteriostatic or bactericidal properties (regrow analysis, MIC vs MBC): S. mutans
Protocol: MIC assay was performed (above) and each well diluted (log-dilution) into a new 96-well microtiter plate. Five μL from each dilution was then plated on THB agar plates and incubated for 24 hours. Colony counts were performed to determine MBC which is defined as the concentration which there is a 3-log reduction in CFU count which corresponds to 99.9% bacterial death.

S. mutans biofilm = S. mutans biofilm model / crystal violet; type: cell-based, Streptococcus mutans; conditions: at concentrations of 250 μM or lower
Protocol: Stock solutions of the compounds (10 mM) were serial diluted in THB media supplemented with 0.1% sucrose (w/v) in flat-bottom 96-well microtiter plates (total volume 100 μL). Bacterial cultures were grown to mid-exponential phase, back diluted to an OD of 0.1 and then inoculated into the 96-well plate to reach a final volume of 200 μL. Plates were incubated at 37° C. in 5% CO2 for 24 hours (early stage biofilm) upon which time wells were evaluated visually for bacterial growth. DMSO controls corresponding to each test concentration were performed. Biological triplicates were performed to confirm results. Biofilm assay was performed (above) and wells are washed with 200 μL of DI H2O and dried for 24 hours at 37° C. Dried plates were incubated for 10 minutes at room temperature with 50 μL of 1% w/v crystal violet (25% ethanol in H2O). Excess crystal violet was removed via aspiration. 200 μL of DI H2O was added to each well and aspirated (repeat until all excess crystal violet is removed). Plates were then inverted and dried at 37° C. for 3-5 hours. Crystal violet stain biofilm mass was dissolved with 200 μL of 95% ethanol, 100 μL of which was then transferred to a fresh flat-bottom 96-well plate for absorbance measurements at 595 nm. DMSO controls corresponding to each test concentration were performed. Biological triplicate was performed to confirm results. […]

[5] = tested on: Streptococcus mutans wild-type strain UA159; conditions: original assays in aerobic environment; cited from earlier work
[6] = tested on: Streptococcus mutans wild-type strain UA159; test: MIC assay, S. mutans; type: cell-based; conditions: read-out: MIC S. mutans, aerobic conditions
[7] = planktonic, 5% CO2, 37° C., 20-24 hours
[8] = Concentration 500 μM, TritonX 100% lysis, PBS 0% lysis

Structure (SMILES)	MIC [1, 7]	MIC [3]	MIC [4]	red blood cell lysis ([2]; Concentration 0.25 μM)	red blood cell lysis ([2]; Concentration 0.5 μM)	red blood cell lysis ([2]; Concentration 1 μM)	red blood cell lysis ([2]; Concentration 2 μM)	red blood cell lysis ([2]; Concentration 4 μM)	red blood cell lysis ([2]; Concentration 8 μM)	red blood cell lysis ([2]; Concentration 16 μM)	red blood cell lysis ([2]; Concentration 32 μM)	red blood cell lysis ([2]; Concentration 63 μM)	red blood cell lysis ([2]; Concentration 125 μM)	red blood cell lysis ([2]; Concentration 250 μM)	red blood cell lysis [2, 8]	concentration at which the membrane is perturbed [2]	concentration at which the membrane is perturbed (membrane)	MBC (S. mutans)	bacteriostatic or bactericidal properties (regrow analysis, MIC vs MBC) (S. mutans)	also measured
CC(C)(C)c1ccc(Cc2ccc(C(C)(C)C)c(O)c2)cc1O [Compound 3N, 5,5′-methylenebis(2-(tert-butyl)phenol)]	2 µM			0.13	−0.02	−0.02	−0.02	0.11	−0.03	−0.02	0.02	0.38	0.43	0.34	0.74	32 µM	32 µM			
C=CCc1ccc(O)c(-c2ccc(O)c(CC=C)c2)c1 [Compound A1, honokiol, reference compound]	250 µM	125 µM (≈ 33.3 µg/mL)	125 µM (≈ 33.3 µg/mL)																	MIC ([1]; 5% CO2-supplemented environment): 66.6 mg/L; bactericidal activity (S. mutans; at concentrations of 250 μM or lower): not bactericidal; inhibition of biofilm growth (S. mutans biofilm): unable to inhibit biofilm growth; MIC S. mutans, literature value [5]: 10 mg/L (≈ 37.5 µM); MIC [6]: 125 µM and 33.3 µg/mL
CC(C)(C)c1ccc(CCc2ccc(C(C)(C)C)c(O)c2)cc1O [Compound C2, 5,5′-(Ethane-1,2-diyl)bis(2-(tert-butyl)phenol)]	2 µM	2.5 µM (≈ 0.816 µg/mL)	1.25 µM (≈ 0.408 µg/mL)	0.02	0.01	−0.02	−0.02	−0.01	−0.03	−0.03	0.07	0.29	0.43	0.70	0.48	32 µM	32 µM	4 µM (≈ 1.31 µg/mL)	bactericidal	lysis of blood cells [2]: lyses blood cells at high concentrations

More lines, main results first:

MIC [1, 7]	MIC [3]	MIC [4]	Structure (SMILES)	red blood cell lysis ([2]; Concentration 0.25 μM)	red blood cell lysis ([2]; Concentration 0.5 μM)	red blood cell lysis ([2]; Concentration 1 μM)	red blood cell lysis ([2]; Concentration 2 μM)	red blood cell lysis ([2]; Concentration 4 μM)	red blood cell lysis ([2]; Concentration 8 μM)	red blood cell lysis ([2]; Concentration 16 μM)	red blood cell lysis ([2]; Concentration 32 μM)	red blood cell lysis ([2]; Concentration 63 μM)	red blood cell lysis ([2]; Concentration 125 μM)	red blood cell lysis ([2]; Concentration 250 μM)	red blood cell lysis [2, 8]	concentration at which the membrane is perturbed [2]	concentration at which the membrane is perturbed (membrane)	MBC (S. mutans)	bacteriostatic or bactericidal properties (regrow analysis, MIC vs MBC) (S. mutans)	also measured
32 µM	32 µM (≈ 9.8 µg/mL)	32 µM (≈ 9.8 µg/mL)	Cc1cc(-c2c(O)ccc3ccccc23)cc(C(C)(C)C)c1O [Compound B9, 1-(3-(tert-Butyl)-4-hydroxy-5-methylphenyl)naphthalen-2-ol]															32 µM (≈ 9.8 µg/mL)		
32 µM	8 µM (≈ 3.16 µg/mL)	8 µM (≈ 3.16 µg/mL)	COC(=O)c1cc2c(-c3cc(C(C)C)c(O)c(C(C)C)c3)c(O)ccc2cc1O [Compound B10, Methyl 3,7-dihydroxy-8-(4-hydroxy-3,5-diisopropylphenyl)-2-naphthoate]															32 µM (≈ 12.6 µg/mL)		
16 µM	8 µM (≈ 2.92 µg/mL)	16 µM (≈ 5.83 µg/mL)	CCCc1cc(-c2c(O)ccc3cc(OC)ccc23)cc(C(C)(C)C)c1O [Compound B11, 1-(3-(tert-Butyl)-4-hydroxy-5-propylphenyl)-6-methoxynaphthalen-2-ol]															63 µM (≈ 23 µg/mL)	bactericidal	
